Results taken from patent publication US20120128740A1, “NANOSTRUCTURED […] BASE, ITS PHARMACEUTICALLY ACCEPTABLE SALTS AND CO-CRYSTALS, COMPOSITIONS OF THEM, PROCESS FOR THE PREPARATION THEREOF AND PHARMACEUTICAL COMPOSITIONS CONTAINING THEM” (priority 2009, published 2012).

How the values were obtained:
[1] = cited from earlier work
[2] = Visual observation of wettability by stereomicroscope; assay type: physicochemical; conditions: one drop of distillate water on 0.1 mg powder
Method: Wettability of nanostructured Sildenafil Citrate particles was investigated in distilled water and was visualized by stereomicroscope equipped with CCD camera. 0.1 mg reference and nanostructure Sildenafil powder was placed to the slide and then one drop of distillate water was added to the powder.

[3] = Particle size concluded from X-ray diffractograms; assay type: physicochemical; conditions: XRD
Source text: The wide reflection between 15 and 20 20 values indicates the amorphous structure of the Carbopol 971. The characteristic reflections of the crystalline Sildenafil citrate can be found on the XRD diffractogram of nanosized Sildenafil citrate, but with lower intensity.

CCCc1nn(C)c2c(=O)[nH]c(-c3cc(S(=O)(=O)N4CCN(C)CC4)ccc3OCC)nc12.O=C(O)CC(O)(CC(=O)O)C(=O)O [Sildenafil citrate, 1-[[3-(6,7-dihydro-1-methyl-7-oxo-3-propyl-1H-pyrazolo[4,3-d]pyrimidin-5-yl)-4-ethoxyphenyl]sulfonyl]-4-methylpiperazine citrate]
absolute bioavailability ([1]; oral): 41% | dose dependence of AUC and cmax ([1]; single doses from 1.25 to 200 mg): dose-proportional | wettability [2]: stayed in their aggregated state | particle size from diffractograms [3]: 1-2 μm
